# Tested on: HT-29
# Assay: Anticancer activity against human HT-29 cells
# Assay type: functional, cell-based
# Settings: pooled result: one value given for 4 cell lines, strains, targets or settings
smiles,measurement,value
COc1ccc(C2=C(c3cc(I)c(OC)c(I)c3)C(=O)OC2)cc1,IC50,258 nM

# Source: ChEMBL document CHEMBL6153024, “A novel life for antitumor combretastatins: Recent developments of hybrids, prodrugs, combination therapies, and antibody-drug conjugates” (Eur J Med Chem, 2025)
